The values that follow come from ChEMBL document CHEMBL1201862, “PubChem BioAssay data set” (2004).

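Method: 48-hour compound exposure of cells in 96-well plates, five concentrations, linear interpolation of endpoints. The concentration for 50% growth inhibition is given as GI50.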 Active and inactive are the calls of the source. No stated cut-off is given here; in the data, active = GI50 up to about 1.1 µM and inactive = higher. A value given as a limit tells only on which side of the number the result lay.

Some test systems named below: DLD-1; MOLT-4; 786-0; UO-31; RXF 393; IGROV-1; DU-145; SK-MEL-5; SK-MEL-28; HCT-15; SF-295; MDA-N; ACHN; T47D; COLO 205; MCF7; MDA-MB-231; SK-MEL-2; SNB-75; HCC 2998.
Experiment in all cases: NCI tumour cell line growth inhibition, 48 h

Turning to `CCCCCCCCCCCC[S+](C)C`, the GI50 in the assay on DLD-1 is 8.81 µM (inactive); in the assay with MOLT-4, 4.94 µM (inactive); with 786-0 it was 1.69 µM (inactive); in the assay on UO-31 it was 10.1 µM (inactive); with RXF 393, 2.07 µM (inactive); with IGROV-1 it was 2 µM (inactive). The GI50 is 1.61 µM (inactive) with DU-145; 3.17 µM (inactive) in the assay on SK-MEL-5; 10.5 µM (inactive) with SK-MEL-28; 18.5 µM with HCT-15; 5.87 µM (inactive) in the assay on SF-295; 1.23 µM (inactive) with MDA-N. The GI50 in the assay with ACHN was 4.56 µM (inactive); in the assay on T47D it was 0.516 µM (active); in the assay on COLO 205, 1.29 µM (inactive); in the assay on MCF7, 9.02 µM (inactive); in the assay with MDA-MB-231, 0.0124 µM (active); in the assay with SK-MEL-2 it was 5.02 µM (inactive). Besides, the figures for the GI50 in the assay on SNB-75 and with HCC 2998 were 5.68 µM (inactive) and 4.21 µM (inactive), respectively.
In the case of `CN1N=C(N)c2cn(C3OC(COP(=O)(O)O)C(O)C3O)c3ncnc1c23` (stereo not given), the GI50 is 1.03 µM (active) in the assay on DLD-1; 0.622 µM (active) with MOLT-4; 20.5 µM (inactive) with 786-0; 4.97 µM (inactive) in the assay with UO-31; 14 µM (inactive) in the assay on RXF 393; 0.935 µM (active) with IGROV-1. The GI50 in the assay with DU-145 was 1.48 µM (inactive); in the assay on SK-MEL-5 it was 1080 µM (inactive); with SK-MEL-28 it was 194 µM (inactive); in the assay on HCT-15, 19.7 µM; in the assay with SF-295, 144 µM (inactive); with MDA-N, 38.4 µM (inactive). In addition, the GI50 in the assay with ACHN is 3.16 µM (inactive); with T47D, 0.5 µM (active); with COLO 205 it was 106 µM (inactive); in the assay on MCF7 it was 1.65 µM (inactive); in the assay with MDA-MB-231, 10.9 µM (inactive); with SK-MEL-2, 8.26 µM (inactive). The figures for the GI50 in the assay on SNB-75 and in the assay with HCC 2998 were 5.33 µM (inactive) and 129 µM (inactive), respectively.
On to `CC1OC(=O)C2CC3CCCCC3C(/C=C/C3CCCC(C)N3C)C12` (stereo not given), for which the GI50 with DLD-1, with MOLT-4, in the assay with 786-0, in the assay with UO-31, in the assay with RXF 393 and in the assay with IGROV-1 was > 100 µM (inactive) in each case. For the same molecule, the GI50 in the assay on DU-145 was > 100 µM (inactive); in the assay with SK-MEL-5, 94.6 µM (inactive); in the assay with SK-MEL-28 it was > 100 µM (inactive); in the assay on HCT-15 it was above 100 µM; in the assay on SF-295, 63.1 µM (inactive); in the assay on MDA-N, > 100 µM (inactive). Moreover, the GI50 in the assay on ACHN is > 100 µM (inactive); with T47D, > 100 µM (inactive); in the assay on COLO 205, > 100 µM (inactive); in the assay with MCF7, 90.8 µM (inactive); in the assay with MDA-MB-231, > 100 µM (inactive); in the assay on SK-MEL-2, 83.2 µM (inactive). Further, the GI50 with SNB-75 is > 95.5 µM (inactive); with HCC 2998, > 100 µM (inactive).
With `Cc1ccccc1NC(=O)C(=O)C(C#N)c1ccccc1C` (stereo not given), the GI50 in the assay with DLD-1, with MOLT-4, in the assay on 786-0, with UO-31, in the assay on RXF 393 and in the assay with IGROV-1 was > 100 µM (inactive) in each case. Besides, the GI50 with SK-MEL-5 was > 100 µM (inactive); in the assay on SK-MEL-28 it was > 100 µM (inactive); in the assay on HCT-15, above 100 µM; with SF-295, > 100 µM (inactive); in the assay on ACHN, > 100 µM (inactive); in the assay on COLO 205 it was 46.8 µM (inactive). Besides, the GI50 with SK-MEL-2, in the assay on SNB-75 and in the assay with HCC 2998 was > 100 µM (inactive) throughout.
Turning to `Cn1cc(C(=O)C2CCCCC2)ccc1=O`, the GI50 in the assay on DLD-1, with MOLT-4, with 786-0, with UO-31, with RXF 393 and with IGROV-1 was > 100 µM (inactive) throughout. For the same molecule, the GI50 in the assay on SK-MEL-5 was > 100 µM (inactive); in the assay with SK-MEL-28, > 100 µM (inactive); in the assay on HCT-15, above 100 µM; with SF-295 it was > 100 µM (inactive); with ACHN, > 100 µM (inactive); with COLO 205, > 100 µM (inactive). The GI50 in the assay with SK-MEL-2, in the assay on SNB-75 and in the assay with HCC 2998 was > 100 µM (inactive) each time.
Consider `O=C1c2cc([N+](=O)[O-])cc3cc([N+](=O)[O-])cc(c23)C(=O)N1CCCNCCNCCCN1C(=O)c2cc([N+](=O)[O-])cc3cc([N+](=O)[O-])cc(c23)C1=O`, for which the GI50 is 0.0282 µM (active) with DLD-1; < 0.01 µM (active) in the assay on MOLT-4; 0.0879 µM (active) in the assay with 786-0; 0.375 µM (active) in the assay on UO-31; 0.0317 µM (active) with RXF 393; 0.0301 µM (active) in the assay with IGROV-1. The GI50 is 0.453 µM (active) in the assay on DU-145; 0.287 µM (active) in the assay with SK-MEL-5; 0.233 µM (active) with SK-MEL-28; 0.117 µM in the assay on HCT-15; 0.0462 µM (active) in the assay with SF-295; 0.752 µM (active) in the assay on MDA-N. Further, the GI50 in the assay on ACHN was 0.0296 µM (active); with T47D, 0.587 µM (active); in the assay with COLO 205, 0.041 µM (active); in the assay with MCF7, 0.0695 µM (active); in the assay with MDA-MB-231, 0.414 µM (active); in the assay on SK-MEL-2, 0.124 µM (active). Further, the GI50 was 0.308 µM (active) in the assay on SNB-75 and 0.0655 µM (active) in the assay with HCC 2998.
Consider `O=C1C2C(C(=O)N1c1ccccc1)C1c3ccccc3C2C2C(=O)N(c3ccccc3)C(=O)C21` (stereo not given), for which the GI50 was 2.73 µM (inactive) in the assay with DLD-1; 20.7 µM (inactive) in the assay on MOLT-4; 3.89 µM (inactive) in the assay with 786-0; 12.7 µM (inactive) in the assay with UO-31; 6.04 µM (inactive) in the assay with RXF 393; > 100 µM (inactive) in the assay on IGROV-1. Moreover, the GI50 with SK-MEL-5 was 4.44 µM (inactive); in the assay with SK-MEL-28 it was 26.2 µM (inactive); in the assay on HCT-15, 3.43 µM; in the assay on SF-295, 3.48 µM (inactive); in the assay with ACHN, 6.47 µM (inactive); in the assay on COLO 205 it was 3.89 µM (inactive). The GI50 in the assay on SK-MEL-2 is 2.54 µM (inactive); in the assay with SNB-75 it was 3.73 µM (inactive); in the assay on HCC 2998, 3.67 µM (inactive).
